Experimental data as given in patent publication US10806726B2, “Methods of using indazole-3-carb oxamides and their use as Wnt/B-catenin signaling pathway inhibitors” (Samumed, LLC, priority 2016, dated 2020).

Assays:
[1] = test system: Wnt-responsive promoter driving firefly luciferase in SW480 cells; test: Wnt reporter (SP5 promoter-luciferase) screening assay in SW480 cells; assay type: cell-based; settings: Homo sapiens, 24-40 h, top concentration ten micromolar
Excerpt: Another screening assay for Wnt activity is described as follows. Reporter cell lines can be generated by stably transducing cells of cancer cell lines (e.g., colon cancer) with a lentiviral construct that include a Wnt-responsive promoter driving expression of the firefly luciferase gene.
Lentiviral constructs can be made in which the SP5 promoter, a promoter having eight TCF/LEF binding sites derived from the SP5 promoter, is linked upstream of the firefly luciferase gene. The lentiviral constructs can also include a hygromycin resistance gene as a selectable marker. The SP5 promoter construct can be used to transduce SW480 cells, a colon cancer cell line having a mutated APC gene that generates a truncated APC protein, leading to de-regulated accumulation of β-catenin.
Cultured SW480 cells bearing a reporter construct can be distributed at approximately 10,000 cells per well into 96 well or 384 well plates. Compounds from a small molecule compound library can then be added to the wells in half-log dilutions using a ten micromolar top concentration. A series of control wells for each cell type receive only buffer and compound solvent. Twenty-four to forty hours after the addition of compound, reporter activity for luciferase can be assayed, for example, by addition of the BrightGlo luminescence reagent (Promega) and the Victor3 plate reader (Perkin Elmer). Readings can be normalized to DMSO only treated cells, and normalized activities can then be used in the EC50 calculations.

[2] = test system: primary human mesenchymal stem cells (hMSCs); test: Tenocyte differentiation screening in hMSCs (SCXA-positive cells, 4 days); assay type: cell-based; settings: 96 h, fold change over DMSO
Excerpt: Representative compounds were screened using primary human mesenchymal stem cells (hMSCs) to determine their ability to induce tenocyte differentiation (process by which tendon is developed).
Primary human mesenchymal stem cells (hMSCs) were purchased from Lonza (Walkersville, Md.) and expanded in Mesenchymal Stem Cell Growth Media (Lonza). Cells between passage 3 and 6 were used for the experiments.
Cells were fixed using 4% formaldehyde (Electron Microscopy Sciences), and stained with anti-Sclerasis (anti-SCXA) antibodies (Abgent, San Diego, Calif.) [Webb S., et. al., Retinoic acid receptor signaling preserves tendon stem cell characteristics and prevents spontaneous differentiation in vitro, Stem Cell Research & Therapy 2016, 7:45] overnight at 4° C. […] Number of cells positive for SCXA in each well was quantified using the Celllnsight CX5. Data was normalized to the average of 12 DMSO treated wells on the same plate using Dotmatics Studies module. The normalized averages (fold change over DMSO) of 3 replicate wells for each compound concentration were calculated. Due to solubility limitations of some of the compounds, values for higher doses were manually corrected and curve fitting and EC50 determinations were performed using Dotmatics Studies.
EC50 for each compound is reported.

For `CN(C)C(=O)Nc1cncc(-c2ccc3[nH]nc(C(=O)Nc4cccnc4)c3c2)c1` [compound 1, 5-(5-(3,3-dimethylureido)pyridin-3-yl)-N-(pyridin-3-yl)-1H-indazole-3-carboxamide], the EC50 [1] was 0.175 µM and the EC50 [2] was over 100 µM.

Work on `O=C(Nc1ccc(C(F)(F)F)nc1)c1n[nH]c2ccc(-c3cncc(F)c3)cc12` [compound 2, 5-(5-fluoropyridin-3-yl)-N-(6-(trifluoromethyl)pyridin-3-yl)-1H-indazole-3-carboxamide] yielded an EC50 [1] of 5 µM and an EC50 [2] of over 100 µM.

`O=C(Nc1ccc(C(F)(F)F)nc1)c1n[nH]c2ccc(-c3cccnc3)cc12` [compound 3, 5-(Pyridin-3-yl)-N-(6-(trifluoromethyl)pyridin-3-yl)-1H-indazole-3-carboxamide] was tested, and the EC50 [1] was 0.2 µM and the EC50 [2] was over 100 µM.

`O=C(Nc1cccnc1)c1n[nH]c2ccc(-c3cccnc3)cc12` [compound 4, N,5-di(pyridin-3-yl)-1H-indazole-3-carboxamide] showed an EC50 [1] of 0.16 µM and an EC50 [2] of 4.55 µM.

For `O=C(Nc1cccc(-c2cccc(F)c2)c1)c1n[nH]c2ccc(-c3cccnc3)cc12` [compound 5, N-(3′-Fluorobiphenyl-3-yl)-5-(pyridin-3-yl)-1H-indazole-3-carboxamide], the EC50 [1] was at least 10 µM and the EC50 [2] was over 100 µM.

`CN(C)Cc1cncc(NC(=O)c2n[nH]c3ccc(-c4cccnc4)cc23)c1` [compound 7, N-(5-((Dimethylamino)methyl)pyridin-3-yl)-5-(pyridin-3-yl)-1H-indazole-3-carboxamide] showed an EC50 [1] of 0.11 µM and an EC50 [2] of 6.94 µM.

`O=C(Nc1ccc(CN2CCCC2)nc1)c1n[nH]c2ccc(-c3cccnc3)cc12` [compound 8, 5-(Pyridin-3-yl)-N-(6-(pyrrolidin-1-ylmethyl)pyridin-3-yl)-1H-indazole-3-carboxamide] gave an EC50 [1] of 0.13 µM and an EC50 [2] of 4.98 µM.

`O=C(Nc1cncc(-c2cccc(F)c2)c1)c1n[nH]c2ccc(-c3cccnc3)cc12` [compound 9, N-(5-(3-Fluorophenyl)pyridin-3-yl)-5-(pyridin-3-yl)-1H-indazole-3-carboxamide] was tested, and the EC50 [1] was at least 10 µM and the EC50 [2] was over 100 µM.

Work on `CN1CCN(c2ncccc2NC(=O)c2n[nH]c3ccc(-c4cccnc4)cc23)CC1` [compound 11, N-(2-(4-Methylpiperazin-1-yl)pyridin-3-yl)-5-(pyridin-3-yl)-1H-indazole-3-carboxamide] yielded an EC50 [1] of at least 10 µM and an EC50 [2] of over 100 µM.

With `CN1CCN(c2ccc(NC(=O)c3n[nH]c4ccc(-c5cccnc5)cc34)cn2)CC1` [compound 12, N-(6-(4-Methylpiperazin-1-yl)pyridin-3-yl)-5-(pyridin-3-yl)-1H-indazole-3-carboxamide] the EC50 [1] was 0.063 µM and the EC50 [2] was 5 µM.

`O=C(Nc1cccnc1)c1n[nH]c2ccc(-c3cncc(F)c3)cc12` [compound 13, 5-(5-fluoropyridin-3-yl)-N-(pyridin-3-yl)-1H-indazole-3-carboxamide] showed an EC50 [1] of 1.25 µM and an EC50 [2] of over 100 µM.

For `O=C(Nc1ccnnc1)c1n[nH]c2ccc(-c3cccnc3)cc12` [compound 14, N-(Pyridazin-4-yl)-5-(pyridin-3-yl)-1H-indazole-3-carboxamide], the EC50 [1] was 0.106 µM and the EC50 [2] was 50.4 µM.

`CN1CCN(Cc2ccc(NC(=O)c3n[nH]c4ccc(-c5cccnc5)cc34)cn2)CC1` [compound 15, N-(6-((4-Methylpiperazin-1-yl)methyl)pyridin-3-yl)-5-(pyridin-3-yl)-1H-indazole-3-carboxamide] was tested, and the EC50 [1] was 0.037 µM and the EC50 [2] was 4.8 µM.

For `O=C(Nc1cccnc1)c1n[nH]c2ccc(-c3cncc(C(F)(F)F)c3)cc12` [compound 16, N-(pyridin-3-yl)-5-(5-(trifluoromethyl)pyridin-yl)-1H-indazole-3-carboxamide], the EC50 [1] was at least 10 µM and the EC50 [2] was 35.8 µM.

`O=C(Nc1ccc(Oc2ccccc2F)nc1)c1n[nH]c2ccc(-c3cccnc3)cc12` [compound 18, N-(6-(2-fluorophenoxy)pyridin-3-yl)-5-(pyridin-3-yl)-1H-indazole-3-carboxamide] gave an EC50 [1] of 0.122 µM and an EC50 [2] of 5.38 µM.

For `O=C(Nc1ccc(Oc2cccc(F)c2)nc1)c1n[nH]c2ccc(-c3cccnc3)cc12` [compound 19, N-(6-(3-Fluorophenoxy)pyridin-3-yl)-5-(pyridin-3-yl)-1H-indazole-3-carboxamide], the EC50 [1] was 0.107 µM and the EC50 [2] was over 100 µM.

With `O=C(Nc1ccc(Oc2ccc(F)cc2)nc1)c1n[nH]c2ccc(-c3cccnc3)cc12` [compound 20, N-(6-(4-Fluorophenoxy)pyridin-3-yl)-5-(pyridin-3-yl)-1H-indazole-3-carboxamide] the EC50 [1] was 0.118 µM and the EC50 [2] was 12 µM.

Compound `O=C(Nc1cncc(F)c1)c1n[nH]c2ccc(-c3cccnc3)cc12` [compound 23, N-(5-Fluoropyridin-3-yl)-5-(pyridin-3-yl)-1H-indazole-3-carboxamide] has an EC50 [1] of 0.12 µM and an EC50 [2] of over 100 µM.

`CN(C)Cc1cncc(-c2ccc3[nH]nc(C(=O)Nc4ccc(C(F)(F)F)nc4)c3c2)c1` [compound 26, 5-(5-((Dimethylamino)methyl)pyridin-3-yl)-N-(6-(trifluoromethyl)pyridin-3-yl)-1H-indazole-3-carboxamide] showed an EC50 [1] of 0.21 µM and an EC50 [2] of over 100 µM.

Work on `O=C(Nc1cccnc1)c1n[nH]c2ccc(-c3cncc(NC(=O)N4CCOCC4)c3)cc12` [compound 32, N-(5-(3-(Pyridin-3-ylcarbamoyl)-1H-indazol-5-yl)pyridin-3-yl) morpholine-4-carboxamide] yielded an EC50 [1] of 1.25 µM and an EC50 [2] of over 100 µM.

For `CN(C)Cc1cncc(-c2ccc3[nH]nc(C(=O)Nc4ccc(Oc5ccccc5F)nc4)c3c2)c1` [compound 36, 5-(5-((Dimethylamino)methyl)pyridin-3-yl)-N-(6-(2-fluorophenoxy)pyridin-3-yl)-1H-indazole-3-carboxamide], the EC50 [1] was 0.275 µM and the EC50 [2] was over 100 µM.

For `Cn1nc(NC(=O)c2n[nH]c3ccc(-c4cccnc4)cc23)cc1C(F)(F)F` [compound 37, N-(1-Methyl-5-(trifluoromethyl)-1H-pyrazol-3-yl)-5-(pyridin-3-yl)-1H-indazole-3-carboxamide], the EC50 [1] was 1.12 µM and the EC50 [2] was over 100 µM.

`CN1CCN(c2ccc(NC(=O)c3n[nH]c4ccc(-c5cncc(NC(=O)C6CC6)c5)cc34)cn2)CC1` [compound 38, 5-(5-(Cyclopropanecarboxamido)pyridin-3-yl)-N-(6-(4-methylpiperazin-1-yl)pyridin-3-yl)-1H-indazole-3-carboxamide] showed an EC50 [1] of 0.12 µM and an EC50 [2] of 2.84 µM.

For `O=C(Nc1ccc(C(F)(F)F)nc1)c1n[nH]c2ccc(-c3cncc(NC(=O)C4CC4)c3)cc12` [compound 39, 5-(5-(Cyclopropanecarboxamido)pyridin-3-yl)-N-(6-(trifluoromethyl)pyridin-3-yl)-1H-indazole-3-carboxamide], the EC50 [1] was 0.065 µM and the EC50 [2] was over 100 µM.

In the case of `CN(C)Cc1cncc(-c2ccc3[nH]nc(C(=O)Nc4cccnc4)c3c2)c1` [compound 40, 5-(5-((Dimethylamino)methyl)pyridin-3-yl)-N-(pyridin-3-yl)-1H-indazole-3-carboxamide], the EC50 [1] is reported as 0.065 µM and the EC50 [2] is reported as 5.17 µM.

For `O=C(Nc1cccnc1)c1n[nH]c2ccc(-c3cncc(NC(=O)C4CC4)c3)cc12` [compound 41, 5-(5-(Cyclopropanecarboxamido)pyridin-3-yl)-N-(pyridin-3-yl)-1H-indazole-3-carboxamide], the EC50 [1] was 0.067 µM and the EC50 [2] was 8.12 µM.

Work on `O=C(Nc1cccnc1)c1n[nH]c2ccc(-c3cncc(CN4CCCC4)c3)cc12` [compound 43, N-(Pyridin-3-yl)-5-(5-(pyrrolidin-1-ylmethyl)pyridin-3-yl)-1H-indazole-3-carboxamide] yielded an EC50 [1] of 0.063 µM and an EC50 [2] of 5.02 µM.

With `CCOc1ccc(NC(=O)c2n[nH]c3ccc(-c4cncc(CN5CCCC5)c4)cc23)cn1` [compound 44, N-(6-Ethoxypyridin-3-yl)-5-(5-(pyrrolidin-1-ylmethyl)pyridin-3-yl)-1H-indazole-3-carboxamide] the EC50 [1] was 0.158 µM and the EC50 [2] was 25.1 µM.

Work on `CCOc1ccc(NC(=O)c2n[nH]c3ccc(-c4cncc(CN5CCCCC5)c4)cc23)cn1` [compound 45, N-(6-Ethoxypyridin-3-yl)-5-(5-(piperidin-1-ylmethyl)pyridin-3-yl)-1H-indazole-3-carboxamide] yielded an EC50 [1] of 0.11 µM and an EC50 [2] of 9.75 µM.

With `O=C(Nc1cccnc1)c1n[nH]c2ccc(-c3cncc(CN4CCCCC4)c3)cc12` [compound 46, 5-(5-(Piperidin-1-ylmethyl)pyridin-3-yl)-N-(pyridin-3-yl)-1H-indazole-3-carboxamide] the EC50 [1] was 0.015 µM and the EC50 [2] was 5.06 µM.
